Source: patent US5994349A, “3-carboalkoxy-2, 3-dihydro-1H-phenothiazin-4[10H]-one derivatives” (priority 1997, dated 1999)
Read-outs that look alike come from different tables or passages of the source.

Tests used:
[1] = test system: pentylenetetrazol seizures; test: subcutaneous pentylenetetrazol (scMet) test, Phase I, mice ip; format: in vivo, male Carworth Farms No. 1 (CF1) mice; details: Mus musculus, mice ip
Experimental: (§1) Initial evaluations for anticonvulsant activity include phases I, VIA and VIB test procedures. These tests are performed intraperitoneally in male Carworth Farms No. 1 (CF1) mice, weighing 18-25 g (Phase I) or orally in male Sprague-Dawley rats, weighing 100-150 g (Phases VIA and VIB). The evaluation is based on three tests: maximal electroshock (MES), subcutaneous (scMet), and the rotorod test for neurological toxicity (Tox). (a) Anticonvulsant Screening Project, Antiepileptic Drug Development Program, National Institutes of Health, DHEW Publ (NIH)(U.S.) 1978, NIH 78-1093. (b) Porter, R. J.; Cereghino, J. J.; Gladding, G. D.; Hessie, B. J.; Kupferberg, H. J.; Scoville, B.; White, B. G. Antiepileptic drug development program. Cleveland Clin. Q. 1984, 51, 293-305. (c) Krall, R. L.; Penry, J. K.; White, B. G.; Kupferberg, H. J.; Swinyard, E. A. Antiepileptic drug development: II. Anticonvulsant drug screening. Epilepsia 1978, 19, 400-428. In the MES test, maximal electroshock seizures are elicited with a 60- cycle alternating current of 50 mA intensity (5-7 times that necessary to elicit minimal electroshock seizures) delivered via corneal electrodes for 0.2 seconds. A drop of 0.9% saline is placed on the eye prior to application of the electrodes in order to […]. Abolition of the hind limb tonic extension component of the seizure is defined as protection and results are expressed as the number of animals protected/the number of animals tested.
In the sc MET test, eighty-five mg/kg of pentylenetetrazol, which induces seizures in more than 95% of mice, is administered as a 0.5% solution subcutaneously in the posterior midline. The animal is observed for 30 minutes. Failure to observe even a threshold seizure (a single episode of clonic spasms of at least 5 seconds duration) is defined as protection and the results are expressed as the number of animals protected/ the number of animals tested. […]

[2] = test system: maximal electroshock seizures; test: maximal electroshock (MES) test, Phase I, mice ip; format: in vivo, male Carworth Farms No. 1 (CF1) mice; details: Mus musculus
Experimental: as §1
In phase I, compounds are suspended in 0.5% aqueous methylcellulose and are administered intraperitoneally at three dosage levels (30, 100, and 300 mg/kg) with anticonvulsant activity and motor impairment noted 30 min and 4 h (and in some cases 2 h and 6 h) after administration.

neurotoxicity (rotorod) [3] = test: rotorod test for neurological toxicity (Tox), Phase I, mice ip; format: in vivo, male Carworth Farms No. 1 (CF1) mice
Experimental: as §1
The rotorod test is used to evaluate neurotoxicity. The animal is placed on a 1 inch diameter knurled plastic rod rotating at 6 rpm. Normal mice can remain on a rod rotating at this speed indefinitely. […]

[4] = test system: maximal electroshock seizures; test: maximal electroshock (MES) test, oral rat (Phase VIA/VIB); format: in vivo, male Sprague-Dawley rats; details: 30 mg/kg
Experimental: as §1
(§2) To differentiate the results between different rodent species, 4b (X=H), as well as 4a (R=H), 4e (R=Cl), 4f (R=Cl) and 4i (R=CH3) are subsequently evaluated for oral (po) activity in the rat (Phase VIA or VIB).

neurotoxicity (rotorod) [5] = test: rotorod toxicity, oral rat (Phase VIA/VIB); format: in vivo, male Sprague-Dawley rats; details: rat oral, 30 mg/kg
Experimental: as §1
The rotorod test is used to evaluate neurotoxicity. The animal is placed on a 1 inch diameter knurled plastic rod rotating at 6 rpm. Normal mice can remain on a rod rotating at this speed indefinitely.
as §2

[6] = 0.5 h, 30 min, read-out: scMet 30 min
[7] = 0.5 h, 30 min, read-out: scMet 30 min (converted)
[8] = 4 h, read-out: scMet 4 h (converted)
[9] = 4 h, read-out: MES 4 h (converted)
[10] = 0.5 h, 30 min, read-out: MES 30 min (converted)

| Structure (SMILES) | responders at 30 mg/kg [1, 6] | responders at 100 mg/kg [1, 6] | responders at 300 mg/kg [1, 7] | responders at 30 mg/kg ([1]; 4 h, read-out: scMet 4 h) | responders at 100 mg/kg ([1]; 4 h, read-out: scMet 4 h) | responders at 300 mg/kg [1, 8] | responders at 30 mg/kg ([2]; 4 h, read-out: MES 4 h) | responders at 100 mg/kg [2, 9] | responders at 300 mg/kg [2, 9] | responders at 30 mg/kg [2, 10] | responders at 100 mg/kg [2, 10] | responders at 300 mg/kg [2, 10] | Tox 30 min (neurotoxicity (rotorod) [3]; 30 mg/kg) | Tox 4 h (neurotoxicity (rotorod) [3]; 30 mg/kg) | Tox 30 min (neurotoxicity (rotorod) [3]; 100 mg/kg) | Tox 4 h (neurotoxicity (rotorod) [3]; 100 mg/kg) | Tox 30 min (neurotoxicity (rotorod) [3]; 300 mg/kg) | Tox 4 h (neurotoxicity (rotorod) [3]; 300 mg/kg) | responders at 30 mg/kg ([4]; 0.25 h) | responders at 30 mg/kg ([4]; 1.00 h) | other results |
| --- | --- | --- | --- | --- | --- | --- | --- | --- | --- | --- | --- | --- | --- | --- | --- | --- | --- | --- | --- | --- | --- |
| COC(=O)[C@@H]1C(=O)C2=C(C[C@H]1C)Nc1ccc(Cl)cc1S2 (relative stereo) [Compound 4e, 7-Chloro-3-carbomethoxy-2-methyl-2,3-dihydro-1H-phenothiazin-4[10H] -one] | 0% | 0% | 0% | 0% | 0% | 0% | 0% | 66.7% | 100% | 0% | 0% | 0% | 0/4 | 0/2 | 0/8 | 0/4 | 0/4 | 0/2 | 0% | 75% | responders at 30 mg/kg ([4]; 2.00 h): 75%; responders at 30 mg/kg ([4]; 4.00 h): 50%; responders at 30 mg/kg ([4]; 0.5 h, 0.50 h): 0%; Tox (neurotoxicity (rotorod) [5]; 0.25 h): 0/4; Tox (neurotoxicity (rotorod) [5]; 0.50 h): 0/4; Tox (neurotoxicity (rotorod) [5]; 1.00 h): 0/4; Tox (neurotoxicity (rotorod) [5]; 2.00 h): 0/4; Tox (neurotoxicity (rotorod) [5]; 4.00 h): 0/4 |
| CCOC(=O)[C@@H]1C(=O)C2=C(C[C@H]1C)Nc1ccc(C)cc1S2 (relative stereo) [Compound 4i, 3-Carbethoxy-2,7-dimethyl-2,3-dihydro-1H-phenothiazin-4[10H]-one] | 0% | 0% | 0% | 0% | 0% | 0% | 0% | 0% | 100% | 50% | 33.3% | 100% | 0/4 | 0/2 | 0/8 | 0/4 | 0/4 | 0/2 | 0% | 75% | responders at 30 mg/kg ([4]; 2.00 h): 25%; responders at 30 mg/kg ([4]; 4.00 h): 0%; responders at 30 mg/kg ([4]; 0.5 h, 0.50 h): 50%; Tox (neurotoxicity (rotorod) [5]; 0.25 h): 0/4; Tox (neurotoxicity (rotorod) [5]; 0.50 h): 0/4; Tox (neurotoxicity (rotorod) [5]; 1.00 h): 0/4; Tox (neurotoxicity (rotorod) [5]; 2.00 h): 0/4; Tox (neurotoxicity (rotorod) [5]; 4.00 h): 0/4 |
| COC(=O)[C@@H]1C(=O)C2=C(C[C@H]1C)Nc1ccccc1S2 (relative stereo) [Compound 4a, 3-Carbomethoxy-2-methyl-2,3-dihydro-1H-phenothiazin-4[10H] -one] | 0% | 0% | 0% | 0% | 0% | 0% | 0% | 33.3% | 100% | 0% | 100% | 100% | 0/4 | 0/2 | 0/8 | 0/4 | 1/4 | 0/2 | 0% | 50% | responders at 30 mg/kg ([4]; 2.00 h): 25%; responders at 30 mg/kg ([4]; 4.00 h): 50%; responders at 30 mg/kg ([4]; 0.5 h, 0.50 h): 25%; Tox (neurotoxicity (rotorod) [5]; 0.25 h): 0/4; Tox (neurotoxicity (rotorod) [5]; 0.50 h): 0/4; Tox (neurotoxicity (rotorod) [5]; 1.00 h): 0/4; Tox (neurotoxicity (rotorod) [5]; 2.00 h): 0/4; Tox (neurotoxicity (rotorod) [5]; 4.00 h): 0/4 |
